Test results published in patent publication US20250003900A1, “Micro Magnetic Resonance Relaxometry (MMRR) for Rapid and Non-Invasive Detection of Senescence in Mesenchymal Stem Cells” (Massachusetts Institute of Technology, priority 2021, published 2025).

What was measured:
[1] = tested on: MSCs; experiment: μMRR T2 measurement of MSCs with induced senescence; type: cell-based
Source text: Cytokines such as Transforming Growth Factor-β1 (TGFβ1) and interleukin-1 (IL-1) induce senescence in MSCs. TGFβ1 is a TGF family member that controls numerous cellular functions, including proliferation and cell death. (Refs. 51 and 52) IL-1 is a proinflammatory cytokine whose expression is associated with SASP. […] The senescent cells are more in TGF-β1 treated cells than IL-1 treated cells (FIG. 8), which is also confirmed here by its decreased T2 values than IL-1 treated cells.
Since MSCs donors show differences in proliferative ability, it is important to find the limit of detection (LOD) of MRR assay in terms of the cell number. […] Here, the LOD was analyzed by decreasing the concentration of cells even lower to 4 ×10^4, 2×10^4, and 1×10^4 cells for uMRR detection as shown in the FIG. 6H and FIG. 8. […] The batches of 1, 2, and 4 (×10^4 cells) in 4 μl detection volume of TGF-β1 treated and untreated MSCs were analyzed by MRR. […]
(§1) Bone marrow-derived mesenchymal stem cells (MSC) were purchased from Lonza Pte. […] The cell number was calculated using a disposable hemocytometer (INCYTO, Korea) with the trypan blue exclusion method. […]
For all MRR experiments, the normalized concentration (3×10^5 cells) of MSCs have used unless otherwise stated. […] Proton transverse relaxation rates T2 were measured by standard Carr-Purcell-Meiboom-Gill (CPMG) pulse programme (Refs. 64 and 65) (FIG. 3B). […]

[2] = tested on: MSCs; experiment: Immunofluorescence of proliferation marker EdU and senescence marker γ-H2AX foci in MSCs; type: cell-based; settings: passage 3 MSCs, 1 μM doxorubicin for 24 hours
Protocol: Proliferation and senescence were measured simultaneously in order to correlate cell state directly with the MRR T2 values. MSCs from the same donor were serially passaged to passage 3, passage 5, and passage 6. As a positive control for senescence cells, cells from passage 3 were also treated with doxorubicin (DOX), a chemotherapy agent that produces DNA damage and reactive oxygen species to induce senescence in tumor cells. To measure DNA synthesis, EdU (5-ethynyl-2′-deoxyuridine) was used as an indicator of active cell proliferation (shown in green). In contrast, senescent cells are known to accumulate γ-H2AX foci (indicated in red). The proliferation (Pf) index and senescence (Sn) index were calculated from these images and plotted respectively (FIG. 6C and FIG. 6D). […]
as §1
For detection of SA-βgal together with another senescence marker (γ-H2AX foci) (Ref. 66) and the proliferation marker, 5-ethynyl-2′-deoxyuridine (Edu) in the cells, the protocol was performed as previously mentioned (Ref. 67). […] Subsequently, Edu labeling was detected following the manufacturer's protocol (Invitrogen). […]

TGFβ1: TGF family member cytokine that induces senescence in MSCs
T2 values of cytokine treated cells ([1]; MSCs treated with 10 ng and 20 ng/ml cytokine): decreased with increasing cytokine concentrations
senescent cells in TGF-β1 treated cells versus IL-1 treated cells ([1]; confirmed by decreased T2 values than IL-1 treated cells): more

COc1cccc2c1C(=O)c1c(O)c3c(c(O)c1C2=O)C[C@@](O)(C(=O)CO)C[C@@H]3O[C@H]1C[C@H](N)[C@H](O)[C@H](C)O1 [DOX, doxorubicin]
senescence (Sn) index (γ-H2aX) ([2]; compared to P3 and P5): more senescent cells
proliferation (Pf) index ([2]; compared with P3, P5 and P6): lowest
